No end group written: not given here.
Legend:
[1] = tested on: fura-2-loaded differentiated HL60 cells; experiment: Cross-desensitization of [Ca2+]i increase between fMLF and the peptides; assay type: cell-based, human; settings: HFYLPm 1 μM, HFYLPM and MFYLPM 10 μM
Experimental: (§1) The level of [Ca^2+]i was determined by Grynkiewicz's method using fura-2/AM (21). Briefly, prepared cells were incubated with 3 μM fura-2/AM at 37° C. for 50 minutes in a fresh serum-free RPMI 1640 medium under continuous stirring. 2×10^6 cells were aliquoted for each assay in Ca^2+-free Locke's solution (154 mM NaCl, 5.6 mM KCl1.2 mM MgCl2, 5 mM HEPES, pH 7.3, 10 mM glucose, and 0.2 mM EGTA). The fluorescence changes at the dual excitation wavelengths of 340 nm and 380 nm and the emission wavelength of 500 nm were measured, and the calibrated fluorescence ratio was translated into [Ca^2+]i.
Among various agonists, fMLF is known to cause superoxide production and [Ca^2+]i increase in phagocytic cells by binding to its specific receptor (7). To check whether the novel peptides can cross-desensitize the signaling by fMLF, the effect of fMLF on the novel peptides-induced [Ca^2+]i increase and vice versa was examined. […] The results of FIG. 6 shown are from one experiment that is representative of at least three independent experiments.
In FIG. 6, “Hm” means HFYLPm, “HM” means HFYLPM, and “MM” means MFYLPM. The concentrations used were 1 μM (HFYLPm and fMLF) and 10 μM (HFYLPM and MFYLPM). 340 nm/380 mn ratios in fluorescence were monitored on fura-2-loaded differentiated HL60 cells before and during sequential addition of agonists at the times indicated by the arrows.

[2] = tested on: human monocytes; experiment: [Ca2+]i rise in human monocytes (fura-2/AM); assay type: cell-based
Experimental: as §1
Many extracellular agonists that stimulate superoxide generation in human phagocytic cells involve intracellular calcium rise (23). In this example, the effect of the peptides on the [Ca^2+]i of monocytes were tested. The results are shown FIG. 3. The data of FIG. 3 are presented as means ±S.E. of four independent experiments. *P<0.01 versus vehicle treatment.
Fura-2-loaded monocytes were stimulated with an effective concentration of HFYLPM (1 μM), MFYLPM (1 μM), HFYLPm (100 nM), and LFMYHP (10 μM). The change in 340 nm/380 nm was monitored. The cells were stimulated with various concentrations of each peptide. The peak level of the increase in [Ca^2+]i was monitored. […] The results of A of FIG. 3 are representative of 6 independent experiments. […]

[3] = tested on: Jurkat human T cell leukemia cells; experiment: [Ca2+]i increase in Jurkat cells (fura-2); assay type: cell-based; settings: FIG. 4A; MFYLPM up to 30 μM
Experimental: as §1
(§2) From the fact that HFYLPM, MFYLPM, and HFYLPm stimulate human monocytes, effects of the peptides on other leukocytes such as neutrophils were evaluated. Prepared human primary monocytes, neutrophils, cultured HL60, Jurkat, U937, NIH3T3, 3Y1, 3T3L1, and PC12 cells were loaded with fura-2 and stimulated with effective concentrations of the three peptides (1 μM for monocyte and neutrophil; 10 μM for HL60 and Jurkat; 20 μM for U937, NIH3T3, 3Y1, 3T3L1, and PC12). The peak level of the [Ca^2+]i increase was recorded and superoxide generation was measured using cytochrome c reduction assay. The results are shown FIG. 4. The data of FIG. 4 are presented as means ±S.E. from at least three independent experiments.

[4] = tested on: human neutrophils; experiment: [Ca2+]i increase in human neutrophils (fura-2); assay type: cell-based; settings: FIG. 4A; 1 μM peptide
Experimental: as §1, §2

[5] = tested on: 3T3L1 (preadipocyte); experiment: [Ca2+]i rise in 3T3L1 cells (fura-2); assay type: cell-based; settings: FIG. 4A; 20 μM peptide
Experimental: as §1, §2

[6] = tested on: human neutrophil; experiment: Chemotaxis assay, human neutrophils (multiwell chamber); assay type: cell-based; settings: similar concentrations as for monocyte migration
Experimental: Chemotaxis assays of the peptide were performed using multiwell chambers (Neuroprobe Inc., Gaithersburg, Md.) (20). Briefly, the prepared isolated human monocytes were suspended in RPMI at a concentration of 1×10^6 cells/ml of serum-free RPMI, and 25 □ of the suspension were placed onto the upper well of a 96-well chemotaxis chamber that was separated by a […] filter with a 5 □ pore size (3 □ diameter pores not coated with polyvinylpyrrolidone for neutrophils) from peptides or an fMLF-containing lower well. After incubation for 2 hours (90 minutes for neutrophils) at 37° C., non-migrated cells were removed by scraping them out, and cells that migrated across the filter were dehydrated, fixed, and stained with hematoxylin (Sigma, St. Louis, Mo.). The stained cells in five randomly chosen high power fields (HPF) (400×) in that well were then counted (21). The numbers of migrated cells were determined by counting them in a high power field (400×). For a checkboard analysis, cells were re-suspended in RPMI containing various concentrations of the peptide just before transferring them to the upper wells as described before (22).

Q: Which results are given for “Met-Phe-Tyr-Leu-Pro-Met-CONH2 (MFYLPM-NH2)”?
A: desensitization to subsequent stimulation with the same peptide ([Ca2+]i) ([1]; FIG. 6): complete desensitization; block of the calcium response to a following saturating concentration of fMLF ([1]; FIG. 6 below, fMLF 1 μM): completely block; [Ca2+]i response to the peptide following a saturating concentration of fMLF ([1]; FIG. 6 upper, fMLF 1 μM): considerable responses; effect on [Ca2+]i in monocytes ([2]; FIG. 3A, HFYLPM 1 μM, MFYLPM 1 μM, HFYLPm 100 nM, LFMYHP 10 μM): caused intracellular Ca mobilization; concentration of maximal [Ca2+]i increase ([2]; FIG. 3B): 1 µM; intracellular calcium mobilization in Jurkat cells [3]: did not cause a similar intracellular calcium mobilization; [Ca2+]i increase in neutrophils [4]: increase their [Ca^2+]i; [Ca2+]i rise in 3T3L1 cells [5]: no response; cellular migration in human neutrophil [6]: induced cellular migration

Reference: patent US7390870B2, “Immune-enhancing peptides” (Posco, priority 2001, dated 2008)
